Reference: patent US20260035452A1 (THE UNIVERSITY OF BIRMINGHAM, priority 2022, published 2026)
No end group written: not given here.

Experiments:
[1] = tested on: hPBMC on cytokine-stimulated HDBEC monolayers; assay: Human PBMC static adhesion / transendothelial migration assay; assay type: cell-based; conditions: co-treatment plus TNF-α
Experimental: FIG. 10: Human dermal blood endothelial cells (HDBEC) were treated with: IL-17 vehicle (Ctrl), IL-17 or FM-0410 (100 ng/ml), alone or in combination with TNF-α (100 U/ml) for 24 h. Cells were washed, gated in their totality and singlet before the identification of IL-17Rs (RA and RC) (A, B), ICAM (C) and VCAM (D) expression. Histogram values (expressed as MIF) indicate the total positive cells (A-D). In (E) are shown phase-contrast micrographs of confluent monolayers of untreated or treated (as reported before) HDBEC. Total adhesion (expressed as INT/mm^2, F) and % of transmigration (G) are calculated with Image Pro programme (DataCell, Finchampstead). Inflammatory supernatants from all experimental conditions were assayed by Elisa for IL-6 (H) expressed in pg/ml. Data were presented as means±S.D. of n=3 healthy donors. […]
Human PBMC transendothelial migration assay: Prior to beginning the assay, HDBEC monolayers were washed with 37° C. medium 199 (Thermo Fisher Scientific) supplemented with 0.15% w/v BSA (MilliporeSigma) to remove any residual cytokines. hPBMC (1×10^6) were co-cultured with cytokine-stimulated HDBEC monolayers at 37° C. for 20 min. […] Total hPBMC adhesion and mean percentage transmigration were calculated for each well.

[2] = tested on: NIH-3T3 mouse embryonic fibroblast cells; assay: IL-6 secretion by NIH-3T3 fibroblasts (Elisa); assay type: cell-based; conditions: NIH-3T3 cells, 50 ng/ml, vs control / IL-17 group
Experimental: FIG. 2: NIH-3T3 mouse embryonic fibroblast cells were treated with IL-17 vehicle (Ctrl), IL-17 (50 ng/ml) alone (IL-17) or peptide (FM-0410) (50 ng/ml) and supernatants were assayed by Elisa for IL-6. Data were expressed as pg/ml and presented as means±S.D. of three separate independent experiments. Statistical analysis was conducted by one-way ANOVA followed by Bonferroni's for multiple comparisons. ^##P≤0.01, ^###P≤0.005 vs Ctrl group; *P≤0.05 vs IL-17 group. In order to assess the biological activity of synthesized peptide, we carried out in vitro studies using NIH-3T3 mouse embryonic fibroblast cells. […] With this in vitro system we measured IL-17 activity by its ability to induce IL-6 secretion by NIH-3T3 mouse embryonic fibroblast cells. Methods: The levels of IL-6 in the cellular and air pouch inflammatory supernatants at 24 h were measured using commercially available enzyme-linked immunosorbent assay kit (ELISA kit, R&D System, Milan, Italy) according to the manufacturer instructions. […] The addition of 100 μl of the substrate and stop solution represented the last steps before the reading of absorbance (measured at 450 nm) on a microplate reader. Antigen levels in the samples were determined using a standard curve and expressed as pg/ml. […]

Substance: Ac-LEKILVSVGATAVTPIVHHVAC [FM-0410]
- total number of adhered hPBMC [1]: significant increase
- transmigrated hPBMC [1]: significant increase
- IL-6 release [2]: significant, and more abundant, release of IL-6 compared to IL-17-treated group
